Reference: ChEMBL document CHEMBL1667821, “Synthesis and galectin-binding activities of mercaptododecyl glycosides containing a terminal β-galactosyl group” (Bioorg Med Chem Lett, 2011)
pKd: −log10 of the molar value. Where “and” joins values, the source holds several entries; their conditions need not be identical. Equal entries are not always repeated. Calls of active or inactive are those of the source. The rule behind the calls is not given here.

Columns and labels:
Galectin-8 [1] = target: T1, Galectin-8 (Homo sapiens, UniProt O00214); experiment: (§1) Binding affinity to human galectin-8 component 1 by surface plasmon resonance method
T1 sequence (O00214 whole entry): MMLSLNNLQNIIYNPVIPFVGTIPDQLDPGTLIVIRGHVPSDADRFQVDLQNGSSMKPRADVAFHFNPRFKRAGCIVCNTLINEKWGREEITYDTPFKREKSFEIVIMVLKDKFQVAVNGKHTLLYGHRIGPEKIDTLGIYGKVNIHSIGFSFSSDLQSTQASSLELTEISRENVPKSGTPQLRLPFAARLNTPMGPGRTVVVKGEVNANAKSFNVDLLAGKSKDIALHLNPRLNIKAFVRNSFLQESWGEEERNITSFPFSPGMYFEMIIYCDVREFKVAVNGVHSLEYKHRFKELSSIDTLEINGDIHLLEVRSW

[2] = target: T2, Galectin-8 (Homo sapiens) (UniProt O00214); experiment: as §1
T2 sequence (whole entry): T1 sequence (O00214 whole entry)

[3] = target: T3, Galectin-4 (Homo sapiens) (UniProt P56470); experiment: (§2) Binding affinity to human galectin-4 component 1 by surface plasmon resonance method
T3 sequence (whole entry): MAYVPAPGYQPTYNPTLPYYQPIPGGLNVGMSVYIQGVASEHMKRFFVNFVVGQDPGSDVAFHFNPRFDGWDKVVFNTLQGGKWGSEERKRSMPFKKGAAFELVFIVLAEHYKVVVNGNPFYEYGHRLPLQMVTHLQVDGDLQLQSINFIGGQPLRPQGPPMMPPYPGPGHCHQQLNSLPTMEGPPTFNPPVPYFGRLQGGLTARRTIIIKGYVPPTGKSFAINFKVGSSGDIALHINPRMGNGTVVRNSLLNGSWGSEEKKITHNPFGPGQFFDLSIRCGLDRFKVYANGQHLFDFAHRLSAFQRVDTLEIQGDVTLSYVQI

Galectin-4 [4] = target: T4, Galectin-4 (Homo sapiens, UniProt P56470); experiment: as §2
T4 sequence (P56470 whole entry): T3 sequence (whole entry)

[5] = target: T2, Galectin-8 (Homo sapiens); experiment: Binding affinity to human galectin-8 by surface plasmon resonance method
[6] = target: T2, Galectin-8 (Homo sapiens); experiment: (§3) Binding affinity to human galectin-8 component 2 by surface plasmon resonance method
[7] = target: Galectin-7 (Homo sapiens) (UniProt P47929); experiment: Binding affinity to human galectin-7 by surface plasmon resonance method
Chain of Galectin-7 (Homo sapiens) (P47929 whole entry): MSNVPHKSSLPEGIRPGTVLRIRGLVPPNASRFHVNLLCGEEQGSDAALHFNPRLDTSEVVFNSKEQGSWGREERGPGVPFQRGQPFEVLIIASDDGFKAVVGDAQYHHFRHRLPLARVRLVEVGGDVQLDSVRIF

[8] = target: Galectin-1 (Homo sapiens) (UniProt P09382); experiment: Binding affinity to human galectin-1 by surface plasmon resonance method
Chain of Galectin-1 (Homo sapiens) (P09382 whole entry): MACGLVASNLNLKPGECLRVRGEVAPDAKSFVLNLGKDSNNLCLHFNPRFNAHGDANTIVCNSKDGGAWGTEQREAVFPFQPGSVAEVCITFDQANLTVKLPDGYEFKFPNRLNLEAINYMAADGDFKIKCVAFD

[9] = target: T3, Galectin-4 (Homo sapiens); experiment: Binding affinity to human galectin-4 by surface plasmon resonance method
Galectin-3 = Galectin-3 (Homo sapiens, UniProt P17931); experiment: Binding affinity to human galectin-3 by surface plasmon resonance method
Chain of Galectin-3 (P17931 whole entry): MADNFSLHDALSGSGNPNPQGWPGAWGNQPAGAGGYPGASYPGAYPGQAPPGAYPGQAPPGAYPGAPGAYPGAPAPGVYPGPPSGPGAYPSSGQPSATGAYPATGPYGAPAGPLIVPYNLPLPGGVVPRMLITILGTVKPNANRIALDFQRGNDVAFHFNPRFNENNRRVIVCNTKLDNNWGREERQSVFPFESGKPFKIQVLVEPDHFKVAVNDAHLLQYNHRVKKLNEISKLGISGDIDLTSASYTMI

[10] = target: T5, Galectin-2 (Homo sapiens) (UniProt P05162); experiment: Binding affinity to human galectin-2 by surface plasmon resonance method
T5 sequence (whole entry): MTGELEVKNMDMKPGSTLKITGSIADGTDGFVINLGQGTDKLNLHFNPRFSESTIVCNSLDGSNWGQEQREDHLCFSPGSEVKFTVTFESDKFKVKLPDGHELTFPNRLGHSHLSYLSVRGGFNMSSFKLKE

[11] = target: T3, Galectin-4 (Homo sapiens); experiment: (§4) Binding affinity to human galectin-4 component 2 by surface plasmon resonance method
Galectin-4 [12] = target: T4, Galectin-4; experiment: as §4
Galectin-8 [13] = target: T1, Galectin-8; experiment: as §3

| SMILES | pKd (Galectin-8 [1]) | Ka [2] [M⁻¹ s⁻¹] | Kdiss [2] | Ka [3] [M⁻¹ s⁻¹] | Kdiss [3] [×10⁻³ /s] | pKd (Galectin-4 [4]) | Activity [5] | Ka [6] [M⁻¹ s⁻¹] | Kdiss [6] | Activity [7] | Activity [8] [a.u.] | Activity [9] | Activity (Galectin-3) | Ka (Galectin-3) [M⁻¹ s⁻¹] | pKd (Galectin-3) | Kdiss (Galectin-3) | Activity [10] | Ka [11] [M⁻¹ s⁻¹] | Kdiss [11] | pKd (Galectin-4 [12]) | also measured |
| --- | --- | --- | --- | --- | --- | --- | --- | --- | --- | --- | --- | --- | --- | --- | --- | --- | --- | --- | --- | --- | --- |
| OC[C@H]1OC(O[C@H]2[C@H](O)[C@@H](O)[C@H](OCCCCCCCCCCCCS)O[C@@H]2CO)[C@H](O)[C@@H](O)[C@H]1O (some centres undefined) | 8.80 and 8.81 | 8970 | 1.39 ×10⁻⁵ /s | 13000 | 1.76 | 6.85 and 6.87 | 368 a.u. | 9.61e+06 | 2.37 ×10⁻¹ /s | 4.2 a.u. | 9.5 | 457 a.u. | 82.3 a.u. | 1760 | 5.97 | 1.86 ×10⁻³ /s | 2 a.u. | 172000 | 1.45 ×10⁻² /s | 7.07 | pKd (Galectin-8 [13]): 7.60 and 7.61 |
| OC[C@H]1O[C@@H](O[C@H]2C=C[C@@H](OCCCCCCCCCCCCS)O[C@@H]2CO)[C@H](O)[C@@H](O)[C@H]1O |  |  |  |  |  |  | Active |  |  | inactive | 25.1 | Active | 5.1 a.u. |  |  |  | 13.4 a.u. |  |  |  |  |
| OC[C@H]1O[C@@H](OCCCCCCCCCCCCS)[C@H](O)[C@@H](O)[C@H]1O |  |  |  |  |  |  | 34.1 a.u. |  |  | inactive | 3.4 | Active | inactive |  |  |  | 3.8 a.u. |  |  |  |  |

Continued, in another order:

| pKd (Galectin-8 [1]) | Ka [2] [M⁻¹ s⁻¹] | Kdiss [2] | Ka [3] [M⁻¹ s⁻¹] | Kdiss [3] [×10⁻³ /s] | pKd (Galectin-4 [4]) | Activity [5] | Ka [6] [M⁻¹ s⁻¹] | Kdiss [6] | Activity [7] | Activity [8] [a.u.] | Activity [9] | Activity (Galectin-3) | Ka (Galectin-3) [M⁻¹ s⁻¹] | pKd (Galectin-3) | Kdiss (Galectin-3) | Activity [10] | Ka [11] [M⁻¹ s⁻¹] | Kdiss [11] | pKd (Galectin-4 [12]) | SMILES | also measured |
| --- | --- | --- | --- | --- | --- | --- | --- | --- | --- | --- | --- | --- | --- | --- | --- | --- | --- | --- | --- | --- | --- |
| 9.64 and 9.63 | 9370 | 2.18 ×10⁻⁶ /s | 2330 | 2.92 | 5.90 | 163 a.u. | 48700 | 2.39 ×10⁻³ /s | 0.8 a.u. | 4.1 | 462 a.u. | 167 a.u. | 5670 | 5.66 | 1.25 ×10⁻² /s | inactive | 111000 | 8.6 ×10⁻² /s | 6.11 | CC(=O)N[C@H]1[C@@H](OCCCCCCCCCCCCS)O[C@H](CO)[C@@H](O[C@@H]2O[C@H](CO)[C@H](O)[C@H](O)[C@H]2O)[C@@H]1O |  |
| 7.43 | 18600 | 6.85 ×10⁻² /s | 4630 | 1.41 | 6.52 | 74.5 a.u. | 35500 | 1.11 ×10⁻¹ /s | inactive | 17.8 | 345 a.u. | 135 a.u. | 1900 | 5.84 | 2.72 ×10⁻³ /s | 11 a.u. | 65200 | 3.78 ×10⁻³ /s | 7.24 | OC[C@H]1O[C@@H](O[C@H]2[C@H](O)C[C@@H](OCCCCCCCCCCCCS)O[C@@H]2CO)[C@H](O)[C@@H](O)[C@H]1O | pKd (Galectin-8 [13]): 7.51 and 7.50 |
